Source: patent US8664201B2 (priority 2008, dated 2014)
Several values for one entry are separate records, joined by “and”; a condition that tells them apart may be missing. Identical values can stand only once. Counter-ions that a name gives are not always drawn. Marks after values point to notes of the source that are not given here.

What was measured:
[1] = Estimated comparable human intravenous dosages
[2] = Acute toxicity, three daily IV bolus injections in mice (IPM lysine salt, IPM parent control); assay type: in vivo; conditions: for intravenous LD10 / intravenous LD50: IV daily × 3 days
Experimental: This example describes the evaluation of the acute toxicity of isophosphoramide mustard lysine salt, following three days of daily intravenous (bolus) injection in mice. This study consisted of two phases.
The second main study phase consisted of eight treatment groups (five mice/sex/group) that received the test article as a single daily dose for three consecutive days at respective dose levels of 50, 75, 100, 200, 300, 400, 500, and 600 mg/kg. An additional group (5 mice/sex) served as a parent compound control and received the isophosphoramide mustard parent compound in the same manner, at a dose level of 150 mg/kg. The vehicle was 0.9% sodium chloride for injection, USP and all doses were at a constant volume of 15 mL/kg.
Observations for mortality, morbidity, and the availability of food and water were conducted twice daily for all animals. Observations for clinical signs were conducted daily during the study (approximately one and four hours postdose on Days 1, 2, and 3, and once daily on non-dosing days). Body weights for all surviving animals were measured and recorded the second day after receipt, prior to randomization, and on Days-1 and 7. Body weights also were measured on all surviving main study phase animals on Day 14. Macroscopic evaluations were performed on each main study animal at necropsy (Day 15).
Eight main study treatment groups received the test article as a single daily dose for three consecutive days via intravenous (bolus) injection at respective dose levels of 50, 75, 100, 200, 300, 400, 500, and 600 mg/kg. An additional group (five mice/sex) served as a parent compound control and received the Isophosphoramide Mustard Parent Compound in the same manner at a dose level of 150 mg/kg. All doses were at a volume of 15 mL/kg and based on the most recent body weight.

[3] = tested on: advanced cancer; test: Treatment of patients with advanced cancer with IPM.(LYS)2; assay type: in vivo, human
Experimental: One patient (cohort) was treated per dose escalation every 21-28 days to allow for toxicity presentation. Doses were escalated by 40% if there were no serious toxic events.

[4] = tested on: Lewis lung murine tumor; conditions: mouse, in vivo, ip
[5] = tested on: MX-1 Human Breast Tumor; conditions: mouse, in vivo, ip

Structure (SMILES): O=P(O)(NCCCl)NCCCl [IPM lysine salt, isophosphoramide mustard lysine salt]
- estimated MTD in humans (1/10 the LD10 in mice) [1]: 40 mg/m^2/d
- Comparable Human IV Dosage ([1]; estimated from mouse sub-acute IV LD10): 40 mg/m^2/d
- Cumulative Mortality, female ([2]; 50 mg/kg IV daily × 3): 0/5
- Cumulative Mortality, male ([2]; 50 mg/kg IV daily × 3): 0/5
- Cumulative Mortality, total ([2]; 50 mg/kg IV daily × 3): No mice died
- Cumulative Mortality, total ([2]; 50 mg/kg IV daily × 3, listed as IPM Lysine Salt): No animals died and 0/10
- Cumulative Mortality, female ([2]; 75 mg/kg IV daily × 3): 0/5
- Cumulative Mortality, male ([2]; 75 mg/kg IV daily × 3): 0/5
- Cumulative Mortality, total ([2]; 75 mg/kg IV daily × 3): No mice died
- Cumulative Mortality, total ([2]; 75 mg/kg IV daily × 3, listed as IPM Lysine Salt): No animals died and 0/10
- Cumulative Mortality, female ([2]; 100 mg/kg IV daily × 3): 0/5
- Cumulative Mortality, male ([2]; 100 mg/kg IV daily × 3): 1/5
- Cumulative Mortality, total ([2]; 100 mg/kg IV daily × 3): 1 of 10
- Cumulative Mortality, total ([2]; 100 mg/kg IV daily × 3, listed as IPM Lysine Salt): 1 of 10 and 1/10
- Cumulative Mortality, female ([2]; 200 mg/kg IV daily × 3): 3/5
- Cumulative Mortality, male ([2]; 200 mg/kg IV daily × 3): 0/5
- Cumulative Mortality, total ([2]; 200 mg/kg IV daily × 3): No mice died
- Cumulative Mortality, total ([2]; 200 mg/kg IV daily × 3, listed as IPM Lysine Salt): 3 of 10 and 3/10
- Cumulative Mortality, female ([2]; 300 mg/kg IV daily × 3): 5/5
- Cumulative Mortality, male ([2]; 300 mg/kg IV daily × 3): 4/5
- Cumulative Mortality, total ([2]; 300 mg/kg IV daily × 3): 9 out of 10
- Cumulative Mortality, total ([2]; 300 mg/kg IV daily × 3, listed as IPM Lysine Salt): 9 of 10 and 9/10
- Cumulative Mortality, female ([2]; 400 mg/kg IV daily × 3): 5/5
- Cumulative Mortality, male ([2]; 400 mg/kg IV daily × 3): 5/5
- Cumulative Mortality, total ([2]; 400 mg/kg IV daily × 3): all mice died
- Cumulative Mortality, total ([2]; 400 mg/kg IV daily × 3, listed as IPM Lysine Salt): all animals died and 10/10
- Cumulative Mortality, female ([2]; 500 mg/kg IV daily × 3): 5/5
- Cumulative Mortality, male ([2]; 500 mg/kg IV daily × 3): 5/5
- Cumulative Mortality, total ([2]; 500 mg/kg IV daily × 3): all mice died
- Cumulative Mortality, total ([2]; 500 mg/kg IV daily × 3, listed as IPM Lysine Salt): all animals died and 10/10
- Cumulative Mortality, female ([2]; 600 mg/kg IV daily × 3): 5/5
- Cumulative Mortality, male ([2]; 600 mg/kg IV daily × 3): 5/5
- Cumulative Mortality, total ([2]; 600 mg/kg IV daily × 3): all mice died
- Cumulative Mortality, total ([2]; 600 mg/kg IV daily × 3, listed as IPM Lysine Salt): all animals died and 10/10
- Sub-acute IV LD10 ([2]; Mouse): 133 mg/kg/day
- intravenous LD10 ([2]; female mice): 179 mg/kg
- intravenous LD50 ([2]; female mice): 197 mg/kg
- macroscopic findings at necropsy ([2]; main study, Day 15): No treatment-related macroscopic findings
- intravenous LD10 ([2]; male mice): 140 mg/kg
- intravenous LD50 ([2]; male mice): 247 mg/kg
- intravenous LD10 ([2]; mice, combined sexes): 133 mg/kg
- intravenous LD50 ([2]; mice, combined sexes): 220 mg/kg
- LD10, intravenous three day dose schedule ([2]; mouse, × 3 days): 133 mg/kg/day
- serious toxicity in patients ([3]; 30, 42, 59 and 83 mg/m^2 daily IV for 3 days, one patient each): without serious toxicity
- disease response ([3]; one patient with rectal cancer, 83 mg/m^2 daily IV for 3 days): stabilization of their disease
- MTD Dosage [4]: 93.2 mg/kg/dose
- T-C [4]: 8.3* days
- increase of the MTD (mg/kg/dose) of the salt over parent drug [4]: 2 fold
- MTD Dosage [5]: 93.2 mg/kg/dose
- T-C [5]: 10.2* days
- superiority to IPM at comparable dosing [5]: 8 fold
